The text below walks through data of ChEMBL document CHEMBL5050844 (2019).

Test [1] concerns the target E3 ubiquitin-protein ligase CBL-B (Homo sapiens, UniProt Q13191). In words: Inhibition of N-terminal Avi-tagged human CBL-B (36 to 427 residues) incubated with 60 nM Src kinase for 1.5 hrs followed by incubation with fluorescently labeled UbcH5B-Ub for 1 hr and measured by TR-FRET assay. The format is single protein.
Test [2] can be described thus: Induction of anti-CD3/CD28 antibodies-stimulated human T cell activation at 1 uM assessed fold increase in IL-2 secretion measured by ELISA assay. In kind it is functional, T cell line. In general terms: In an ELISA, binding on a coated surface is turned into a signal by an enzyme label.
Test [3] can be described thus: Induction of anti-CD3/CD28 antibodies-stimulated human T cell activation at 0.3 uM assessed fold increase in IL-2 secretion measured by ELISA assay. The format is functional, T cell line.
Test [4] in a line: Induction of anti-CD3 antibodies-stimulated human T cell activation at 1 uM assessed fold increase in IL-2 secretion measured by ELISA assay. Note: reference of the scale not given here. The format is functional, T cell line.
A short description of test [5]: Induction of anti-CD3/CD28 antibodies-stimulated human T cell activation at 1 uM assessed fold increase in CD25 expression measured by ELISA assay. In kind it is functional, T cell line.
Test [6] can be described thus: Induction of anti-CD3/CD28 antibodies-stimulated human T cell activation at 0.3 uM assessed fold increase in CD25 expression measured by ELISA assay. In kind it is functional, T cell line.
Test [7] is described as follows: Induction of anti-CD3 antibodies-stimulated human T cell activation at 1 uM assessed fold increase in CD25 expression measured by ELISA assay. Note: reference of the scale not given here. In kind it is functional, T cell line.

Where only a bound is given, the exact number is not on record here.

E3 ubiquitin-protein ligase CBL-B, sequence (Q13191 whole entry, the tested form may be a part): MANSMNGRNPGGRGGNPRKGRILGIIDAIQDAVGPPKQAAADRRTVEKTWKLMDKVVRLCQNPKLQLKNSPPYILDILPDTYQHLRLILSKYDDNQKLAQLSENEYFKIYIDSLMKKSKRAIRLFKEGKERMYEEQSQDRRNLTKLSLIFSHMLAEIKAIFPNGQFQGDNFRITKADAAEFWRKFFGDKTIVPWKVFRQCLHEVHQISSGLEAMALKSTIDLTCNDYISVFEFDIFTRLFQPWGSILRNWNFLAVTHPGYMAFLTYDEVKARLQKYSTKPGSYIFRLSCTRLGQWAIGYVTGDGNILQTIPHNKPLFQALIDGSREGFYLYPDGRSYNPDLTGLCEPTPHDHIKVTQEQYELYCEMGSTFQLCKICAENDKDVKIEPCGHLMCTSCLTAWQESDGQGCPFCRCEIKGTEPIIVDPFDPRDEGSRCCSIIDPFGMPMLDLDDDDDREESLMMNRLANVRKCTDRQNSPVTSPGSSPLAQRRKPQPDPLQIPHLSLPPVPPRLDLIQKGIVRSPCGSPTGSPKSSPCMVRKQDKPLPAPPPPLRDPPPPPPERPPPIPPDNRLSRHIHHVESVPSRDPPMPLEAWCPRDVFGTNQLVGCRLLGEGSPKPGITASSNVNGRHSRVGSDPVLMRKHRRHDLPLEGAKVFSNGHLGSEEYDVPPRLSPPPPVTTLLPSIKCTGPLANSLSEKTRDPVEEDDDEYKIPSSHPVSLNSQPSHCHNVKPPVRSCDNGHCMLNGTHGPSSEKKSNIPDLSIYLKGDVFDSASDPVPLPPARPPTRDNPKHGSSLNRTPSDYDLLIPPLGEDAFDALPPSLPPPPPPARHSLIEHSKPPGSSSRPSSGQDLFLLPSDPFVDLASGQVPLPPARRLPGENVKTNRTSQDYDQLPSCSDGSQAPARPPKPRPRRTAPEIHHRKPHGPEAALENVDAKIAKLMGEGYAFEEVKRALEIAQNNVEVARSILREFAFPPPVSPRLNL

As usually defined, the IC50 is the concentration needed to halve the response being measured. Read a low IC50 as greater potency in that assay. On to `Cn1cnnc1CC1(c2cccc(N3Cc4c(cc(CN5CCCC(F)(F)C5)cc4C(F)(F)F)C3=O)c2)COC1`, for which the IC50 in test [1] was under 0.1 µM. Moreover, the “fold change (FC)” value in test [2] was “>=7.5”; in test [3], “>=7.5”; in test [4], “>=0.201”; in test [5], 1.51; in test [6] it was 1.51; in test [7], “>=1.001”.

Consider `Cc1cc(C(=O)Nc2cccc(C3([C@H](F)c4nncn4C)COC3)c2)nc(C2CC2)n1`, for which, in test [1], the IC50 was under 0.1 µM. In addition, the “fold change (FC)” value in test [2] is listed as 5; in test [3], 2.51; in test [4] it was 0.151; in test [5] it was 1.01; in test [6], 1.01; in test [7] it was “>=1.001”.

In turn, `Cn1cc2c(n1)CCCN2Cc1cc2c(c(C(F)(F)F)c1)CN(c1cccc(C3(Cc4nncn4C)COC3)c1)C2=O` came in with a 50% inhibitory concentration (IC50) in test [1] of under 0.1 µM. The “fold change (FC)” value is listed as “>=7.5” in test [2]; 5 in test [3]; “>=0.201” in test [4]; 1.31 in test [5]; 1.01 in test [6]; “>=1.001” in test [7].

Turning to `CC(c1cc2c(c(C3CC3)n1)CN(c1cccc(C3(Cc4nncn4C)COC3)c1)C2=O)N1CCC2(CC2)C1` (stereo not given), the IC50 in test [1] is under 0.1 µM. Besides, the “fold change (FC)” value was found to be 5 in test [2]; 2.51 in test [3]; 0.051 in test [4]; 1.01 in test [5]; 1.01 in test [6]; 0.801 in test [7].

As to `Cc1cc2c(c(C3CC3)n1)CN(c1cccc(C3(C(F)(F)c4nncn4C)COC3)c1)C2=O`, in test [1], the IC50 is under 0.1 µM. Further, the “fold change (FC)” value in test [2] amounted to 1.01; in test [3], 1.01; in test [4], 0.051; in test [5], 1.01; in test [6], 1.01; in test [7], 0.601.

`Cc1conc1CC1(c2cccc(N3Cc4c(cc(CN5CCC6(CC6)C5)cc4C(F)(F)F)C3=O)c2)COC1` registered an IC50 in test [1] of under 0.1 µM. Also, the “fold change (FC)” value was “>=7.5” in test [2]; “>=7.5” in test [3]; “>=0.201” in test [4]; 1.31 in test [5]; 1.31 in test [6]; “>=1.001” in test [7].

In test [1], `Cn1cnnc1CC1(c2cccc(N3Cc4c(cc(N5CC6(C5)CC(F)(F)C6)cc4C(F)(F)F)C3=O)c2)COC1` displayed an IC50 of under 0.1 µM. Also, the “fold change (FC)” value is recorded as “>=7.5” in test [2]; 5 in test [3]; 0.101 in test [4]; 1.31 in test [5]; 1.01 in test [6]; “>=1.001” in test [7].

Regarding `Cn1cnnc1CC1(c2cccc(NC(=O)c3cc(CN4CC[C@H](F)C4)nc(C(F)(F)F)n3)c2)COC1`, the IC50 in test [1] was under 0.1 µM. Moreover, the “fold change (FC)” value in test [2] is reported as 2.51; in test [3], 1.01; in test [4], 0.051; in test [5], 1.01; in test [6], 1.01; in test [7] it was 0.801.

As for `Cn1cnnc1CC1(c2cccc(N3Cc4c(cc(CN5CC6C(C5)C6(F)F)cc4C(F)(F)F)C3=O)c2)COC1` (stereo not given), the half-inhibitory concentration (IC50) in test [1] is under 0.1 µM. Further, the “fold change (FC)” value is on record as “>=7.5” in test [2]; 5 in test [3]; “>=0.201” in test [4]; 1.31 in test [5]; 1.31 in test [6]; “>=1.001” in test [7].

In test [1], `CN1C2CCC1CN(c1cc3c(c(C(F)(F)F)c1)CN(c1cccc([C@@](C)(F)C(F)(F)c4nncn4C)c1)C3=O)C2` returned an IC50 of under 0.1 µM. Besides, the “fold change (FC)” value worked out at 2.51 in test [2]; 1.01 in test [3]; 0.101 in test [4]; 1.31 in test [5]; 1.01 in test [6]; 0.801 in test [7].

In the case of `Cn1cnnc1CC1(c2cccc(N3Cc4c(cc(CN5Cc6ccccc6C5)cc4C(F)(F)F)C3=O)c2)COC1`, the IC50 in test [1] is under 0.1 µM. The “fold change (FC)” value in test [2] is on record as “>=7.5”; in test [3], 5; in test [4] it was “>=0.201”; in test [5], 1.31; in test [6], 1.31; in test [7], “>=1.001”.

In test [1], `Cn1cnnc1CC1(c2cccc(N3Cc4c(cc(CN5CC[C@@H](F)[C@@H](F)C5)cc4C(F)(F)F)C3=O)c2)COC1` (relative stereo) registered an IC50 of under 0.1 µM.

As for `Cn1cnnc1CC1(c2cccc(N3Cc4c(cc(CN5CCc6ncccc6C5)cc4C(F)(F)F)C3=O)c2)COC1`, the IC50 in test [1] is under 0.1 µM.

Consider `Cn1cnnc1CC1(c2cccc(N3Cc4c(cc(CN5CCOC(C6CC6)C5)cc4C(F)(F)F)C3=O)c2)COC1` (stereo not given), for which the IC50 in test [1] is under 0.1 µM.

In test [1], `Cn1cnnc1CC1(c2cccc(N3Cc4c(cc(CN5CCOC(C)(C)C5)cc4C(F)(F)F)C3=O)c2)COC1` returned a half-maximal inhibitory concentration (IC50) of under 0.1 µM.

In test [1], `Cn1cnnc1CC1(c2cccc(N3Cc4c(cc(CN5CCc6cnccc6C5)cc4C(F)(F)F)C3=O)c2)COC1` showed an IC50 of under 0.1 µM.

With `Cn1cnnc1CC1(c2cccc(N3Cc4c(cc(CN5CCOC(CC(F)(F)F)C5)cc4C(F)(F)F)C3=O)c2)COC1` (stereo not given), in test [1], the concentration for half-maximal inhibition (IC50) is under 0.1 µM.

The compound `CC(c1cc2c(c(C(F)(F)F)c1)CN(c1cccc(C3(C(F)(F)c4nncn4C)COC3)c1)C2=O)N1CC[C@H](F)C1` (stereo not given in full) showed an IC50 in test [1] of under 0.1 µM.

In test [1], `Cn1cnnc1CC1(c2cccc(N3Cc4c(cc(CN5Cc6cccc(C#N)c6C5)cc4C(F)(F)F)C3=O)c2)COC1` gave an IC50 of under 0.1 µM.

Consider `CN1CC[C@H](O)C(Cc2cc3c(c(C(F)(F)F)c2)CN(c2cccc(C4(Cc5nncn5C)COC4)c2)C3=O)C1` (single isomer, unassigned), for which the IC50 in test [1] is under 0.1 µM.

In turn, `C[C@@H]1CN(Cc2cc3c(c(C(F)(F)F)c2)CN(c2cccc(C4(Cc5nncn5C)COC4)c2)C3=O)C[C@H](C)O1` came in with an IC50 in test [1] of under 0.1 µM.

As for `Cn1cnnc1CC1(c2cccc(N3Cc4c(cc(CN5CC[C@@H](c6ccccc6)C5)cc4C(F)(F)F)C3=O)c2)COC1`, the IC50 in test [1] was under 0.1 µM.

As to `COc1ccc2c(c1)CN(Cc1cc3c(c(C(F)(F)F)c1)CN(c1cccc(C4(Cc5nncn5C)COC4)c1)C3=O)CC2`, the IC50 in test [1] was under 0.1 µM.

Consider `C[C@@H]1CN(Cc2cc3c(c(C(F)(F)F)c2)CN(c2cccc(-c4c(-c5nncn5C)cnn4C)c2)C3=O)CCO1`, for which the IC50 in test [1] is under 0.1 µM.

In test [1], `Cn1cnnc1CC1(c2cccc(N3Cc4c(cc(C(O)C(F)(F)F)cc4C(F)(F)F)C3=O)c2)COC1` (stereo not given) gave an IC50 of under 0.1 µM.

On to `Cn1cnnc1CC1(c2cccc(N3Cc4c(cc(CN5CCC(F)(F)C(O)C5)cc4C(F)(F)F)C3=O)c2)COC1` (stereo not given), for which the IC50 in test [1] was under 0.1 µM.

`CC(c1cc2c(c(C(F)(F)F)c1)CN(c1cccc(C3(Cc4nncn4C)COC3)c1)C2=O)n1ccnc1` (stereo not given) showed a half-inhibitory concentration (IC50) in test [1] of under 0.1 µM.

`Cn1cnnc1CC1(c2cccc(N3Cc4c(cc(CN5CCO[C@H](C(F)(F)F)C5)cc4C(F)(F)F)C3=O)c2)COC1` displayed an IC50 in test [1] of under 0.1 µM.

As to `C[C@@H](Sc1nncn1C)c1ccc(F)c(N2Cc3c(cccc3C(F)(F)F)C2=O)c1`, in test [1], the IC50 is over 10 µM.

Regarding `Cn1cnnc1CC1(c2cccc(N3Cc4c(cc(CN5CCC(F)CC5)cc4C4CC4)C3=O)c2)COC1`, the IC50 in test [1] is under 0.1 µM.

In test [1], `Cn1cnnc1CC1(c2cccc(N3Cc4c(cc(CN5CC6CC(C5)C6(F)F)cc4C(F)(F)F)C3=O)c2)COC1` had an IC50 of under 0.1 µM.

On to `Cn1cnnc1CC1(c2cccc(N3Cc4c(cc(CN5CCOC(C(F)F)C5)cc4C(F)(F)F)C3=O)c2)COC1` (stereo not given), for which the IC50 in test [1] was under 0.1 µM.

With `Cn1cnnc1CC1(c2cccc(N3Cc4c(cc(CN5CCO[C@H](CO)C5)cc4C(F)(F)F)C3=O)c2)COC1`, in test [1], the IC50 was under 0.1 µM.

As for `Cn1cnnc1CC1(c2cccc(N3Cc4c(cc(CN5CCc6ccncc6C5)cc4C(F)(F)F)C3=O)c2)COC1`, the IC50 in test [1] is under 0.1 µM.

Take `COC[C@@H]1CN(Cc2cc3c(c(C(F)(F)F)c2)CN(c2cccc(C4(Cc5nncn5C)COC4)c2)C3=O)CCO1`: the IC50 in test [1] is under 0.1 µM.

The compound `C[C@@H]1CN(Cc2cc3c(c(C(F)(F)F)c2)CN(c2cccc(-c4c(-c5nncn5C)cnn4C)c2)C3=O)C[C@H](C)O1` gave an IC50 in test [1] of under 0.1 µM.

In turn, `Cn1cnnc1CC1(c2cccc(N3Cc4c(cc(CN5CC[C@@H]6OCC[C@@H]6C5)cc4C(F)(F)F)C3=O)c2)COC1` (relative stereo) displayed an IC50 in test [1] of under 0.1 µM.

Turning to `C[C@H]1CCN(Cc2cc3c(c(C(F)(F)F)c2)CN(c2cccc(C4(Cc5nncn5C)COC4)c2)C3=O)C[C@H]1F`, the IC50 in test [1] was under 0.1 µM.

For `Cn1cnnc1CC1(c2cccc(N3Cc4c(cc(CN5CCOC(CCO)C5)cc4C(F)(F)F)C3=O)c2)COC1` (stereo not given), the IC50 in test [1] was under 0.1 µM.

In test [1], `CC(C)C1CN(Cc2cc3c(c(C(F)(F)F)c2)CN(c2cccc(C4(Cc5nncn5C)COC4)c2)C3=O)CCO1` (stereo not given) returned an IC50 of under 0.1 µM.

As for `Cn1cnnc1CC1(c2cccc(N3Cc4c(cc(CN5CCc6cc(C#N)ccc6C5)cc4C(F)(F)F)C3=O)c2)COC1`, in test [1], the IC50 is under 0.1 µM.

In test [1], `Cn1cnnc1CC1(c2cccc(N3Cc4c(cc(CC5CNCCC5=O)cc4C(F)(F)F)C3=O)c2)COC1` (stereo not given) gave an IC50 of under 0.1 µM.

For `C[C@@H](Cc1n[nH]cc1CO)c1cccc(N2Cc3c(cccc3C(F)(F)F)C2=O)c1`, the IC50 in test [1] was over 10 µM.

For the compound `C[C@@H]1CCN(Cc2cc3c(c(C(F)(F)F)c2)CN(c2cccc(C4(Cc5nncn5C)COC4)c2)C3=O)C[C@@H]1F`, in test [1], the IC50 was under 0.1 µM.
